Marks after values point to notes of the source that are not given here.
How the values were obtained:
[1] = DPPH radical scavenging activity; settings: 10 minutes reaction, absorbance 517 nm; Table 7
Description: 4 mM of DPPH solution in ethanol was prepared and used after the absorbance was adjusted to 1.000±0.1. 0.2 mL of each sample was added to a test tube, 2.8 mL of DPPH solution was mixed and allowed to react for 10 minutes, and the absorbance was measured at 517 nm by using a microplate reader (M2, Molecular Device, Canada). L-ascorbic acid was used as a positive control. The DPPH radical scavenging activity was calculated from the following formula: DPPH radical scavenging activity (%)=[1−(A/B)]×100 • (A: absorbance of a group with addition of sample, B: absorbance of a group without addition of sample)

[2] = Oxidation stability of lipid by Rancimat method; settings: fish oil containing 2% of the polyphenol composition, 100° C., Table 9; for IP (min) induction period: air 20 L/hr; for AI Antioxidative Index: relative to lipid without composition
Description: Oxidation stability of lipid was analyzed by using the Rancimat (743 Metrohm Co., Herisau, Switzerland) method. 2.5 g of fish oil [Sigma-Aldrich Co. (St. Louis. MO, USA)] containing 2% of the polyphenol composition was put into a reaction vessel, and air was put at 20 L/hr into lipid on an aluminum heating block controlled at 100° C. to oxidize lipid. The volatile oxidation products generated during this time were transferred to an absorption vessel containing 60 mL of distilled water, and the degree of anti-oxidation was determined through the induction period automatically calculated in accordance with the change of electrical conductivity. For comparison of antioxidative activity, the Antioxidative Index (AI) was calculated by using a lipid sample with no addition of the polyphenol composition as a control group from the following formula: Further, L-ascorbic acid was used as a positive control. Antioxidative Index (AI)=IG/IC (IG: […])

polyphenol oxidase (PPO) = test: Polyphenol oxidase (PPO) inhibitory activity; type: biochemical; settings: pH 6.5, 25° C., catechin substrate, absorbance 420 nm; Table 11
Description: 1.7 mL of 50 mM phosphate buffer (pH 6.5) and 0.2 mL of PPO (4,276 units/mg) were mixed, and 0.1 mL of each polyphenol composition was added, and the mixture was left in a constant temperature water bath controlled at 25° C. for 15 minutes, and 1 mL of 4 mM catechin solution was added thereto as a substrate, respectively. Then, a change in absorbance for 5 minutes at 420 nm was measured by using a microplate reader (M2, Molecular Device, Canada). The enzyme inhibitory activity was expressed as absorbance reduction (%) represented by the following formula: Inhibition of PPO activity (%)=[1−(A/B)]×100 • [A: absorbance of sample, B: absorbance of blank solution]

[3] = Trimethylamine (TMA) reducing effect, SPME-GC/MS; settings: TMA 100 ppm standard aqueous solution; compositions T1-T6, 50 ppm of each polyphenol
Description: 30% concentration product of trimethylamine was purchased from Duksan Chemistry (Ansan, Republic of Korea) and used in the experiment. To determine the TMA-reducing effect, the standard reagent of 30% trimethylamine was diluted with distilled water to 100 ppm to prepare a standard aqueous solution. The prepared standard aqueous solution was used as a solvent to prepare a test polyphenol composition, and a trimethylamine-containing polyphenol composition sample was prepared and used for GC/MS analysis. The trimethylamine (TMA) component was determined from the polyphenol composition through the following method. […] The amount of TMA in the composition was calculated by comparing the peak area of 1.0 g of the sample and 1 g of 100 mg/L of TMA relative to each other and performing the comparative relative quantification of the contents of volatile aroma components in the sample. To determine the superiority of the combination of chlorogenic acid, caffeic acid, and quinic acid, the TMA reducing effect, which is known to be an effect of polyphenols, was evaluated. Specifically, the trimethylamine (TMA)-reducing effect was evaluated through the method of Experimental example 2 for each polyphenol composition prepared in Experimental example 1-2. […]

Row | SMILES | DPPH (%) radical scavenging activity [1] | IP (min) induction period [2] | AI Antioxidative Index [2] | PPO (%) inhibition of PPO activity (polyphenol oxidase (PPO)) | Reduction (%) of trimethylamine (TMA) [3] [%]
1 | O=C1O[C@H]([C@@H](O)CO)C(O)=C1O [(+) control, L-ascorbic acid, reference compound] | 81.07 ± 0.59^a % | 90.53 ± 1.37^c min | 1.22 ± 0.03^c | 22.86 ± 0.70^a % | –
2 | O=C(O)[C@]1(O)C[C@@H](O)[C@@H](O)[C@H](O)C1 [Composition T3, Quinic acid] | 0.60 ± 1.04^e % | 77.23 ± 1.05^e min | 1.04 ± 0.01^e | 19.47 ± 0.75^c % | 57.66
